Laboratory results taken from patent US11083699B2, “Trans-4-hydroxycyclohexyl phenyl amide mitofusin activators and methods of use thereof” (MITOCHONDRIA EMOTION, INC., priority 2019, dated 2021).
Read-outs that look alike come from different tables or passages of the source.

What was measured:
[1] = Mouse PK, plasma and brain levels after single IV dose; format: in vivo; settings: single 10 mg/kg IV
MAO-A = target: T1, MAO-A (Homo sapiens, UniProt P21397); assay: Receptor/kinase panel: MAO-A; format: biochemical; settings: off-target DAT/MAO-A at 10 μM vs on-target potency
T1 sequence (P21397 1-527): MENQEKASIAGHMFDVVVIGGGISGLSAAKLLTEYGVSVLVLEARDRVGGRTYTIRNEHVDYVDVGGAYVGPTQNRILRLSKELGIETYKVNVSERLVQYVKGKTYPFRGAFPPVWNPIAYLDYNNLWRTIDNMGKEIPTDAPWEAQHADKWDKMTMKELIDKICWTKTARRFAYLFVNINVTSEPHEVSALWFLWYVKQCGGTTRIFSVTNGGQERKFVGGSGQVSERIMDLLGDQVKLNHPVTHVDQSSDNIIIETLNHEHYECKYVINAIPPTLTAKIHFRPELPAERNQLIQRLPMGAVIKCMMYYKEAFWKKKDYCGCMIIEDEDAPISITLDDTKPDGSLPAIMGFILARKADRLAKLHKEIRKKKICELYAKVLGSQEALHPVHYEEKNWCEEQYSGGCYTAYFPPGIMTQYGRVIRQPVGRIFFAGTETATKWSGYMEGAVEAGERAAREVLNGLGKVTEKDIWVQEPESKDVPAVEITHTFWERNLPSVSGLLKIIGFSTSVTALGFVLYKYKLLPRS

[2] = Stability in human liver microsomes; format: in vitro ADME
[3] = Stability in mouse liver microsomes; format: in vitro ADME
[4] = Parallel artificial membrane permeability assay (PAMPA); format: in vitro ADME
P-gp = P-gp (Homo sapiens, UniProt P08183); assay: P-gp study, bidirectional permeability in NIH MDR1 cells; format: in vitro ADME
Sequence of P-gp (P08183 whole entry): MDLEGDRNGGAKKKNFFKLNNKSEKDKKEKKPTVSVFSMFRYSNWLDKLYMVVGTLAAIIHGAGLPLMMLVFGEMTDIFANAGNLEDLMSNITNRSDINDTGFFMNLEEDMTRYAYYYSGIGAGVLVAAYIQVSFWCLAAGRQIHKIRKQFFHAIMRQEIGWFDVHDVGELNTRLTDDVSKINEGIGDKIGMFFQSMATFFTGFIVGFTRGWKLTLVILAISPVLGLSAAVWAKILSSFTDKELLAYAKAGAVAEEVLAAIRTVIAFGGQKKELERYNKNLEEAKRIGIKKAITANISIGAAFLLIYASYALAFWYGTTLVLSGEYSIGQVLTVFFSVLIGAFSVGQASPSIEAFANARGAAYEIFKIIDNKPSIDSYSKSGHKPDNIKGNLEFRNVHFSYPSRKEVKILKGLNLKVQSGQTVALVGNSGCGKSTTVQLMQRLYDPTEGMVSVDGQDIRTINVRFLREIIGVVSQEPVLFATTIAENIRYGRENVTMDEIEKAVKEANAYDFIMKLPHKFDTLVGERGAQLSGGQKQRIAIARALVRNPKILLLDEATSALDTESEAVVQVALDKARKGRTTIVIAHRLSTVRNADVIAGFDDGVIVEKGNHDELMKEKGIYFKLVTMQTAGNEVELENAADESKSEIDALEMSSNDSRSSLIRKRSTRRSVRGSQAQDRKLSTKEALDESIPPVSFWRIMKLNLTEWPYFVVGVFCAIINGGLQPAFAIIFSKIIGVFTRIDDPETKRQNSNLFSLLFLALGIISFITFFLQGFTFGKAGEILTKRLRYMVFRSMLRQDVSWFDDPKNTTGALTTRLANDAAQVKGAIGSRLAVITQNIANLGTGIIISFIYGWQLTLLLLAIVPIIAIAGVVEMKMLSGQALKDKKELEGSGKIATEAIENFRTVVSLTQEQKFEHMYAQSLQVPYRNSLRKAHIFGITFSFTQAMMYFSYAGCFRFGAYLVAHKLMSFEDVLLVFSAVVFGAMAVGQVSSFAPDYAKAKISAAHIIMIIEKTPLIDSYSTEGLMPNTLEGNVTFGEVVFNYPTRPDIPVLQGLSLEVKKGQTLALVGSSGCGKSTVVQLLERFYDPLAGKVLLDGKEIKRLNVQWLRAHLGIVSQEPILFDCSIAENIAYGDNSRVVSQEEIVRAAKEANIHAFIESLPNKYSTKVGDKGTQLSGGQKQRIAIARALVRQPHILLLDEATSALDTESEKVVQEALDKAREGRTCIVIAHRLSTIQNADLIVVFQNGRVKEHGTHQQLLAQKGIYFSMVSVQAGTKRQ

[5] = GF120918 −, read-out: Mean Recovery % A to B

Row | SMILES | t1/2 HLM [2] [h] | t1/2 MLM [3] [h] | recovery (P-gp; [5]) [%] | further results
1 | O=C(CCCCCc1ccccc1)N[C@H]1CC[C@H](O)CC1 [Compound 15B, N-(trans-4-Hydroxycyclohexyl)-6-phenylhexanamide] | – | – | – | Vdss (volume of distribution at steady state) [1]: 0.35 L/kg; time therapeutic brain levels (>30 ng/g) were maintained [1]: more than 2 hours; safety window compared to on-target efficacy (MAO-A): 1,000 fold
2 | O=C(CCCCOc1ccccc1)N[C@H]1CC[C@H](O)CC1 [Compound 21] | >2.42 | >2.42 | – | –
3 | O=C(CCCOCc1ccccc1)N[C@H]1CC[C@H](O)CC1 [Compound 22] | >2.42 | >2.42 | – | –
4 | O=C(CCOCCc1ccccc1)N[C@H]1CC[C@H](O)CC1 [Compound 23] | >2.42 | >2.42 | – | –
5 | O=C(COCCCc1ccccc1)N[C@H]1CC[C@H](O)CC1 [Compound 24] | >2.42 | >2.42 | – | –
6 | O=C(N[C@H]1CC[C@H](O)CC1)OCCCCc1ccccc1 [Compound 25] | 2.188 | 0.815 | – | PAMPA compared to parent trans-N-(4-hydroxycyclohexyl)-6-phenylhexanamide [4]: 10 fold
7 | C[C@H]1O[C@@H](O[C@H]2[C@@H](O)C[C@H](O[C@H]3[C@@H](O)C[C@H](O[C@H]4CC[C@@]5(C)[C@H](CC[C@@H]6[C@@H]5C[C@@H](O)[C@]5(C)[C@@H](C7=CC(=O)OC7)CC[C@]65O)C4)O[C@@H]3C)O[C@@H]2C)C[C@H](O)[C@@H]1O [Digoxin] | – | – | 98.9 | recovery (P-gp; GF120918 −, read-out: Mean Recovery % B to A): 103%; Papp B→A (P-gp; MDCK-MDR1, with GF120918 (concentration not stated), GF120918 +): 2.05 ×10⁻⁶ cm/s; Papp B→A (P-gp; MDCK-MDR1, GF120918 −): 13.4 ×10⁻⁶ cm/s; recovery (P-gp; with GF120918 (concentration not stated), GF120918 +, read-out: Mean Recovery % B to A): 99.3%
8 | COCCc1ccc(OCC(O)CNC(C)C)cc1 (centres unmarked) [Metoprolol] | – | – | 105 | Papp A→B (P-gp; MDCK-MDR1, GF120918 −): 21.2 ×10⁻⁶ cm/s
9 | CC(C)(C)NCC(O)COc1cccc2c1CC(O)C(O)C2 (centres unmarked) [Nadolol] | – | – | 97.9 | Papp A→B (P-gp; MDCK-MDR1, GF120918 −): 0.26 ×10⁻⁶ cm/s
